Reference: PubChem BioAssay (NCI)
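Each compound was tested at five concentrations against cells in 96-well plates for 48 hours. Abbreviation: GI50, concentration required for 50% inhibition of growth. TGI: concentration producing complete growth inhibition.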

Columns and labels:
Test in all cases: DTP human tumour cell line panel, 48 h
[1] = test system: 786-0 renal
[2] = test system: A498 renal
[3] = test system: A549 NSCLC
[4] = test system: ACHN renal
[5] = test system: BT-549 breast
[6] = test system: CAKI-1 renal
[7] = test system: CCRF-CEM leukemia
[8] = test system: COLO 205 colon
[9] = test system: DU-145 prostate
[10] = test system: EKVX NSCLC
[11] = test system: HCC-2998 colon
[12] = test system: HCT-116 colon
[13] = test system: HCT-15 colon
[14] = test system: HL-60(TB) leukemia
[15] = test system: HOP-62 NSCLC
[16] = test system: HOP-92 NSCLC
[17] = test system: HS 578T breast
[18] = test system: HT29 colon
[19] = test system: IGROV1 ovarian
[20] = test system: K-562 leukemia
[21] = test system: KM12 colon
[22] = test system: LOX IMVI melanoma
[23] = test system: M14 melanoma
[24] = test system: MALME-3M melanoma
[25] = test system: MCF7 breast
[26] = test system: MDA-MB-231 breast
[27] = test system: MDA-MB-435
[28] = test system: MOLT-4 leukemia
[29] = test system: NCI-H226 lung
[30] = test system: NCI-H23 lung
[31] = test system: NCI-H460 lung
[32] = test system: NCI-H522 lung
[33] = test system: NCI/ADR-RES ovarian
[34] = test system: OVCAR-3 ovarian
[35] = test system: OVCAR-4 ovarian
[36] = test system: OVCAR-5 ovarian
[37] = test system: OVCAR-8 ovarian
[38] = test system: PC-3 prostate
[39] = test system: RPMI-8226 leukemia
[40] = test system: RXF 393 renal
[41] = test system: SF-268 CNS
[42] = test system: SF-295 CNS
[43] = test system: SF-539 CNS
[44] = test system: SK-MEL-2 melanoma
[45] = test system: SK-MEL-28 melanoma
[46] = test system: SK-MEL-5 melanoma
[47] = test system: SK-OV-3 ovarian
[48] = test system: SN12C renal
[49] = test system: SNB-19 CNS
[50] = test system: SNB-75 CNS
[51] = test system: SR leukemia
[52] = test system: SW-620 colon
[53] = test system: T-47D breast
[54] = test system: TK-10 renal
[55] = test system: U251 CNS
[56] = test system: UACC-257 melanoma
[57] = test system: UACC-62 melanoma
[58] = test system: UO-31 renal

For `O=C(Nc1cccnc1)c1cccc([N+](=O)[O-])c1`, the GI50 [1] was > 100 µM, the TGI [1] was > 100 µM and the GI50 [2] was > 100 µM. The TGI [2] was > 100 µM, the GI50 [3] was > 100 µM and the TGI [3] was > 100 µM. For the same molecule, the GI50 [4] was > 100 µM, the TGI [4] was > 100 µM and the GI50 [5] was > 100 µM. The TGI [5] was > 100 µM, the GI50 [6] was > 100 µM and the TGI [6] was > 100 µM. For the same molecule, the GI50 [7] was > 100 µM, the TGI [7] was > 100 µM and the GI50 [8] was > 100 µM. The TGI [8] was > 100 µM, the GI50 [9] was > 100 µM and the TGI [9] was > 100 µM. The GI50 [10] was > 100 µM, the TGI [10] was > 100 µM and the GI50 [11] was > 100 µM. For the same molecule, the TGI [11] was > 100 µM, the GI50 [12] was > 100 µM and the TGI [12] was > 100 µM. The GI50 [13] was > 100 µM, the TGI [13] was > 100 µM and the GI50 [14] was > 100 µM. The TGI [14] was > 100 µM, the GI50 [15] was > 100 µM and the TGI [15] was > 100 µM. For the same molecule, the GI50 [16] was > 100 µM, the TGI [16] was > 100 µM and the GI50 [17] was > 100 µM. The TGI [17] was > 100 µM, the GI50 [18] was > 100 µM and the TGI [18] was > 100 µM. The GI50 [19] was > 100 µM, the TGI [19] was > 100 µM and the GI50 [20] was > 100 µM. For the same molecule, the TGI [20] was > 100 µM, the GI50 [21] was > 100 µM and the TGI [21] was > 100 µM. The GI50 [22] was > 100 µM, the TGI [22] was > 100 µM and the GI50 [23] was > 100 µM. The TGI [23] was > 100 µM, the GI50 [24] was > 100 µM and the TGI [24] was > 100 µM. For the same molecule, the GI50 [25] was > 100 µM, the TGI [25] was > 100 µM and the GI50 [26] was > 100 µM. The TGI [26] was > 100 µM, the GI50 [27] was > 100 µM and the TGI [27] was > 100 µM. The GI50 [28] was > 100 µM, the TGI [28] was > 100 µM and the GI50 [29] was > 100 µM. The TGI [29] was > 100 µM, the GI50 [30] was > 100 µM and the TGI [30] was > 100 µM. The GI50 [31] was > 100 µM, the TGI [31] was > 100 µM and the GI50 [32] was > 100 µM. For the same molecule, the TGI [32] was > 100 µM, the GI50 [33] was > 100 µM and the TGI [33] was > 100 µM. For the same molecule, the GI50 [34] was > 100 µM, the TGI [34] was > 100 µM and the GI50 [35] was > 100 µM. The TGI [35] was > 100 µM, the GI50 [36] was > 100 µM and the TGI [36] was > 100 µM. The GI50 [37] was > 100 µM, the TGI [37] was > 100 µM and the GI50 [38] was > 100 µM. The TGI [38] was > 100 µM, the GI50 [39] was > 100 µM and the TGI [39] was > 100 µM. The GI50 [40] was > 100 µM, the TGI [40] was > 100 µM and the GI50 [41] was > 100 µM. For the same molecule, the TGI [41] was > 100 µM, the GI50 [42] was > 100 µM and the TGI [42] was > 100 µM. For the same molecule, the GI50 [43] was > 100 µM, the TGI [43] was > 100 µM and the GI50 [44] was > 100 µM. The TGI [44] was > 100 µM, the GI50 [45] was > 100 µM and the TGI [45] was > 100 µM. The GI50 [46] was > 100 µM, the TGI [46] was > 100 µM and the GI50 [47] was > 100 µM. For the same molecule, the TGI [47] was > 100 µM, the GI50 [48] was > 100 µM and the TGI [48] was > 100 µM. The GI50 [49] was > 100 µM, the TGI [49] was > 100 µM and the GI50 [50] was > 100 µM. For the same molecule, the TGI [50] was > 100 µM, the GI50 [51] was > 100 µM and the TGI [51] was > 100 µM. For the same molecule, the GI50 [52] was > 100 µM, the TGI [52] was > 100 µM and the GI50 [53] was > 100 µM. For the same molecule, the TGI [53] was > 100 µM, the GI50 [54] was > 100 µM and the TGI [54] was > 100 µM. The GI50 [55] was > 100 µM, the TGI [55] was > 100 µM and the GI50 [56] was > 100 µM. The TGI [56] was > 100 µM, the GI50 [57] was > 100 µM and the TGI [57] was > 100 µM. For the same molecule, the GI50 [58] was > 100 µM and the TGI [58] was > 100 µM.
`COc1ccc(Cn2cnc3cc(C(=O)Nc4cccc5ccccc45)ccc32)c(OC)c1` was tested, and the GI50 [1] was 0.045 µM, the TGI [1] was > 100 µM and the GI50 [2] was 0.0226 µM. For the same molecule, the TGI [2] was 0.0771 µM, the GI50 [3] was 0.0644 µM and the TGI [3] was > 100 µM. For the same molecule, the GI50 [4] was 0.078 µM, the TGI [4] was > 100 µM and the GI50 [5] was 0.0603 µM. For the same molecule, the TGI [5] was 6.53 µM, the GI50 [6] was 0.0387 µM and the TGI [6] was > 100 µM. The GI50 [7] was 0.0407 µM, the TGI [7] was > 100 µM and the GI50 [8] was 0.0462 µM. It also gave a TGI [8] of 0.724 µM, a GI50 [9] of 0.0439 µM and a TGI [9] of 3.36 µM. For the same molecule, the GI50 [10] was 0.0654 µM, the TGI [10] was > 100 µM and the GI50 [11] was 0.197 µM. For the same molecule, the TGI [11] was 14.6 µM, the GI50 [12] was 0.0374 µM and the TGI [12] was 4.49 µM. The GI50 [13] was 0.0443 µM, the TGI [13] was > 51.1 µM and the GI50 [14] was 0.0319 µM. The TGI [14] was 0.145 µM, the GI50 [16] was 0.153 µM and the TGI [16] was > 100 µM. The GI50 [17] was 0.0351 µM, the TGI [17] was > 100 µM and the GI50 [18] was 0.0345 µM. The TGI [18] was 5.18 µM, the GI50 [19] was 0.0653 µM and the TGI [19] was > 100 µM. The GI50 [20] was 0.0344 µM, the TGI [20] was > 100 µM and the GI50 [21] was 0.0391 µM. For the same molecule, the TGI [21] was 8.06 µM, the GI50 [22] was 0.0611 µM and the TGI [22] was > 100 µM. For the same molecule, the GI50 [23] was 0.0275 µM, the GI50 [24] was 0.0614 µM and the TGI [24] was > 100 µM. The GI50 [25] was 0.0357 µM, the TGI [25] was > 100 µM and the GI50 [26] was 0.0894 µM. For the same molecule, the TGI [26] was 4.31 µM, the GI50 [27] was 0.0173 µM and the TGI [27] was 0.0358 µM. The GI50 [28] was 0.0621 µM, the TGI [28] was > 100 µM and the GI50 [29] was 0.111 µM. For the same molecule, the TGI [29] was > 100 µM, the GI50 [30] was 0.0898 µM and the TGI [30] was > 100 µM. It also gave a GI50 [31] of 0.0363 µM, a TGI [31] of 1.21 µM and a GI50 [32] of 0.039 µM. For the same molecule, the GI50 [33] was 0.042 µM, the TGI [33] was > 100 µM and the GI50 [34] was 0.0267 µM. For the same molecule, the TGI [34] was 0.0776 µM, the GI50 [35] was 0.122 µM and the TGI [35] was > 100 µM. The GI50 [36] was 0.18 µM, the TGI [36] was > 100 µM and the GI50 [37] was 0.0603 µM. The TGI [37] was > 100 µM, the GI50 [38] was 0.051 µM and the TGI [38] was > 100 µM. It also gave a GI50 [39] of 0.0368 µM, a TGI [39] of 12.5 µM and a GI50 [40] of 0.0355 µM. For the same molecule, the TGI [40] was > 100 µM, the GI50 [41] was 0.104 µM and the TGI [41] was > 51.7 µM. For the same molecule, the GI50 [42] was 0.0341 µM, the TGI [42] was > 100 µM and the GI50 [43] was 0.0316 µM. For the same molecule, the TGI [43] was 0.147 µM, the GI50 [44] was 0.945 µM and the TGI [44] was > 100 µM. For the same molecule, the GI50 [45] was 1.63 µM, the TGI [45] was > 100 µM and the GI50 [46] was 0.0502 µM. The TGI [46] was 6.71 µM, the GI50 [47] was 0.106 µM and the TGI [47] was > 100 µM. For the same molecule, the GI50 [48] was 0.0691 µM, the TGI [48] was > 100 µM and the GI50 [49] was 0.0465 µM. The TGI [49] was > 100 µM, the GI50 [51] was 0.0228 µM and the TGI [51] was > 100 µM. For the same molecule, the GI50 [52] was 0.0334 µM, the TGI [52] was > 100 µM and the GI50 [53] was 0.0372 µM. For the same molecule, the TGI [53] was > 100 µM, the GI50 [54] was 1.17 µM and the TGI [54] was > 100 µM. For the same molecule, the GI50 [55] was 0.0398 µM, the TGI [55] was > 100 µM and the GI50 [56] was 39 µM. For the same molecule, the TGI [56] was > 100 µM, the GI50 [57] was 0.0531 µM and the TGI [57] was > 66.7 µM. The GI50 [58] was 0.0759 µM and the TGI [58] was > 100 µM.
